Experimental findings from patent publication US20070254917A1, “INTRACELLULAR RECEPTOR MODULATOR COMPOUNDS AND METHODS” (priority 2004, published 2007) are described below.

Each structure is given as a SMILES string.

This test deals with T1, human glucocorticoid receptor protein (GR) (Homo sapiens, UniProt P04150).
T1 construct: made in house; host or cells: Sf21 insect cells (baculovirus)
T1 sequence (P04150 1-777): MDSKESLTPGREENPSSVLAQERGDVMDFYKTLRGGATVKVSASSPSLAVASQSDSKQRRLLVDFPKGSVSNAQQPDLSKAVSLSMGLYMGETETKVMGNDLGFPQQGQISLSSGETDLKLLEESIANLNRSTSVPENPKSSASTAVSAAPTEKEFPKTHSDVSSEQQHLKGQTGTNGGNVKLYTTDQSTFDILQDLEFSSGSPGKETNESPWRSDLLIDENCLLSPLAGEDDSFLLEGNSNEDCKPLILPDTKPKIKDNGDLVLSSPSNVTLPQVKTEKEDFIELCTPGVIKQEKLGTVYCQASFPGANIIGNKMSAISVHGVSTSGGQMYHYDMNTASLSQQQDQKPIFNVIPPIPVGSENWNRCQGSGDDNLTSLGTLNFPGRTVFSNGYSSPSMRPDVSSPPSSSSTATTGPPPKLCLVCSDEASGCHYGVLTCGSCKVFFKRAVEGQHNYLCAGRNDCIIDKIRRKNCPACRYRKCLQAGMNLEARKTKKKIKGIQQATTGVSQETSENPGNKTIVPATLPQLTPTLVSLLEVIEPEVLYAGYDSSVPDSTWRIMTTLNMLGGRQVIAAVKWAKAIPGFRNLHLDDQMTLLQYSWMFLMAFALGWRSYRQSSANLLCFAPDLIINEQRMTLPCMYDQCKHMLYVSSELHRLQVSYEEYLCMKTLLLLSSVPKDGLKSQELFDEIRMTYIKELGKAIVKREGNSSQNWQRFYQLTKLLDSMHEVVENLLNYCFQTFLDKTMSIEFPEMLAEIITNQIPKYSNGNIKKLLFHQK
The experiment in a line: Glucocorticoid binding assay ([3H]dexamethasone displacement, GR lysate). Particulars: baculovirus-expressed GR lysate from Sf21 cells; 2-4 nM [3H]dexamethasone; 16 hours at 4° C.; Cheng-Prusoff from IC50.

Procedure: A baculovirus expression plasmid comprising cDNA encoding the human glucocorticoid receptor protein (GR) was prepared using standard techniques. […] That expression plasmid was co-transfected together with wild type Autographa californica multiple nuclear polyhedrosis virus DNA into Spodopter frugiperda-21 (Sf-21) cells to generate recombinant virus comprising GR cDNA. […] That recombinant virus comprising GR cDNA was collected.
A suspension culture of uninfected Sf21 cells was grown to a density of 1.2×10^6 cells/ml and then infected with the recombinant virus comprising GR cDNA at a multiplicity of infection of 2. Those infected Sf21 cells were incubated for 48 hours and then collected by centrifugation at 1000×g for 10 minutes at 4° C. The resulting cell pellets were resuspended in lysis buffer (50 mM Potassium Phosphate buffer, pH 7.0, 10 mM Monothioglycerol, 5 mM DTT, 20 mM Sodium Molybdate, 1 mM PMSF, 1 μg/mL aprotinin, and 10 μg/mL leupeptin) and incubated for 15 minutes on ice. Those resuspended cell pellets were homogenized using a Dounce homogenizer and a B pestle. A volume of 2 M KCl was added to the homogenized cell pellets to a final concentration of 0.4 M. The resulting GR lysates were centrifuged at 100,000×g for 60 min at 4° C. and stored for use in binding assays.
Binding assay samples were prepared in separate mini-tubes in a 96-well format at 4° C. […] Each reference compound and test compound was assayed at varying concentrations, ranging from 0 to 10^−5 M. Each concentration of each reference compound and each test compound was assayed in triplicate. The assay samples were incubated for 16 hours at 4° C.
After incubation, 200 μl of 6.25% hydroxylapatite in assay buffer was added to each assay sample to precipitate the protein. The assay samples were then centrifuged and the supernatants were discarded. The resulting pellets were washed twice with assay buffer lacking DTT. Radioactivity in counts per minute (CPM) of each washed pellet was determined by liquid scintillation counter (MicroBeta™, Wallach).

As to `COc1cccc(OC)c1-c1cc(C)c2c(c1Cl)C(C)CC(C)(C)N2` (racemic) [Compound 104, (±)-5-Chloro-6-(2,6-dimethoxyphenyl)-1,2,3,4-tetrahydro-2,2,4,8-tetramethylquinoline], the Ki (as a rule, a measure of affinity in units of concentration, obtained from inhibition or displacement) stood at 34 nM. With `Cc1cc(-c2cccc3c2OCC(=O)N3)c(Cl)c2c1NC(C)(C)CC2C` (racemic) [Compound 204, (±)-6-(2H-1,4-Benzoxazin-3(4H)-on-8-yl)-5-chloro-1,2,3,4-tetrahydro-2,2,4,8-tetramethylquinoline], the Ki came out at 26 nM. With `Cc1cc(-c2ccccc2[N+](=O)[O-])c(Cl)c2c1NC(C)(C)CC2C` (racemic) [Compound 122, (±)-5-Chloro-1,2,3,4-tetrahydro-2,2,4,8-tetramethyl-6-(2-nitrophenyl)quinoline] the figure was 78 nM; with `Cc1cc(-c2c(C)noc2C)c(Cl)c2c1NC(C)(C)C(O)C2C` (racemic) [Compound 164, (±)-5-Chloro-6-(3,5-dimethylisoxazol-4-yl)-1,2,3,4-tetrahydro-3β-hydroxy-2,2,4α,8-tetramethylquinoline], 3.3 nM; with `CC(=O)c1ccccc1-c1cc(C)c2c(c1Cl)C(C)CC(C)(C)N2` (racemic) [Compound 119, (±)-6-(2-Acetylphenyl)-5-chloro-1,2,3,4-tetrahydro-2,2,4,8-tetramethylquinoline], 97 nM. In turn, `COc1c(C#N)cccc1-c1cc(C)c2c(c1Cl)C(C)C(O)C(C)(C)N2` (racemic) [Compound 191, (±)-5-Chloro-6-(3-cyano-2-methoxyphenyl)-1,2,3,4-tetrahydro-3α-hydroxy-2,2,4α,8-tetramethylquinoline] registered a Ki of 4.8 nM. In turn, `Cc1cc(-c2cccc3c2OCC(=O)N3C)c(Cl)c2c1NC(C)(C)CC2C` (racemic) [Compound 205, (±)-5-Chloro-1,2,3,4-tetrahydro-2,2,4,8-tetramethyl-6-(4-methyl-2H-1,4-benzoxazin-3(4H)-on-8-yl)quinoline] had an inhibitory constant (Ki) of 87 nM. Take `COc1c(C#N)cccc1-c1cc(C)c2c(c1Cl)C(C)C(=O)C(C)(C)N2` (racemic) [Compound 179, (±)-5-Chloro-6-(3-cyano-2-methoxyphenyl)-1,4-dihydro-2,2,4,8-tetramethyl-2H-quinolin-3-one]: the affinity corresponds to a Ki of 2.6 nM. As to `COc1c(O)cccc1-c1cc(C)c2c(c1Cl)C(C)CC(C)(C)N2` (racemic) [Compound 151, (±)-5-Chloro-1,2,3,4-tetrahydro-6-(3-hydroxy-2-methoxyphenyl)-2,2,4,8-tetramethylquinoline], affinity was put at a Ki of 3.6 nM. Next, `COc1ccc(Cl)cc1-c1cc(C)c2c(c1Cl)C(C)CC(C)(C)N2` (racemic) [Compound 121, (±)-5-Chloro-6-(5-chloro-2-methoxyphenyl)-1,2,3,4-tetrahydro-2,2,4,8-tetramethylquinoline]: 14 nM. Turning to `Cc1cc(-c2csc3ccccc23)c(Cl)c2c1NC(C)(C)CC2C` (racemic) [Compound 109, (±)-6-(Benzothiophen-3-yl)-5-chloro-1,2,3,4-tetrahydro-2,2,4,8-tetramethylquinoline], the affinity, expressed as Ki, was 4 nM. With `Cc1cc(-c2cccc3ccccc23)c(Cl)c2c1NC(C)(C)CC2(C)O` (racemic) [Compound 215, (±)-5-Chloro-1,2,3,4-tetrahydro-4-hydroxy-2,2,4,8-tetramethyl-6-(naphthal-1-yl)quinoline] the figure was 5.9 nM; with `CC(C)=CCOc1c(-c2cc(C)c3c(c2Cl)C(C)CC(C)(C)N3)cccc1[N+](=O)[O-]` (racemic) [Compound 203, (±)-5-Chloro-1,2,3,4-tetrahydro-2,2,4,8-tetramethyl-6-[2-(methylbut-2-enyloxy)-3-nitrophenyl]quinoline], 56 nM; with `COc1c(C#N)cccc1-c1cc(C)c2c(c1Cl)C(C)C(O)C(C)(C)N2` (racemic) [Compound 165, (±)-5-Chloro-6-(3-cyano-2-methoxyphenyl)-1,2,3,4-tetrahydro-3β-hydroxy-2,2,4α,8-tetramethylquinoline], 2.7 nM. As to `Cc1cc(-c2cccc3c2CCC3=NO)c(Cl)c2c1NC(C)(C)CC2C` (racemic) [Compound 154, (±)-5-Chloro-6-(1-hydroxyiminoindan-4-yl)-1,2,3,4-tetrahydro-2,2,4,8-tetramethylquinoline], affinity was put at a Ki of 0.4 nM. Against the preceding molecule, the Ki is about 6.8-fold lower. Next, `Cc1cc(-c2cccc(C#N)c2C)c(Cl)c2c1NC(C)(C)CC2C` (racemic) [Compound 155, (±)-5-Chloro-6-(3-cyano-2-methylphenyl)-1,2,3,4-tetrahydro-2,2,4,8-tetramethylquinoline]: 1.4 nM. With `Cc1cc(-c2c(C)noc2C)c(Cl)c2c1NC(C)(C)C(O)C2C` (racemic) [Compound 192, (±)-5-Chloro-6-(3,5-dimethylisoxazol-4-yl)-1,2,3,4-tetrahydro-3α-hydroxy-2,2,4α,8-tetramethylquinoline] the figure was 9.4 nM; with `Cc1cc(-c2cc3ccccc3s2)c(Cl)c2c1NC(C)(C)CC2C` (racemic) [Compound 116, (±)-6-(Benzothiophen-2-yl)-5-chloro-1,2,3,4-tetrahydro-2,2,4,8-tetramethylquinoline], 420 nM; with `Cc1cc(-c2cccc3ccccc23)c(Cl)c2c1NC(C)(C)CC2C` (racemic) [Compound 135, (±)-5-Chloro-1,2,3,4-tetrahydro-2,2,4,8-tetramethyl-6-(naphthal-1-yl)quinoline], 8.8 nM. With `Cc1cc(-c2ccc(F)c3c(C)c[nH]c23)c(Cl)c2c1NC(C)(C)CC2C` (racemic) [Compound 147, (±)-5-Chloro-6-(4-fluoro-3-methylindol-7-yl)-1,2,3,4-tetrahydro-2,2,4,8-tetramethylquinoline] the figure was 2 nM; with `Cc1cc(-c2cccc3c2NCC3)c(Cl)c2c1NC(C)(C)CC2C` (racemic) [Compound 210, (±)-5-Chloro-1,2,3,4-tetrahydro-6-(indolin-7-yl)-2,2,4,8-tetramethylquinoline], 5.7 nM. `Cc1cc(-c2ccccc2Cl)c(Cl)c2c1NC(C)(C)CC2C` (racemic) [Compound 118, (±)-5-Chloro-6-(2-chlorophenyl)-1,2,3,4-tetrahydro-2,2,4,8-tetramethylquinoline] showed a Ki of 22 nM. For `Cc1cc(-c2cccc(C(F)(F)F)c2F)c(Cl)c2c1NC(C)(C)CC2C` (racemic) [Compound 130, (±)-5-Chloro-6-[2-fluoro-3-(trifluoromethyl)phenyl]-1,2,3,4-tetrahydro-2,2,4,8-tetramethylquinoline], the Ki is 81 nM. The molecule `Cc1cc(-c2csc3ccccc23)c(Cl)c2c1NC(C)(C)C(O)C2C` (racemic) [Compound 194, (±)-6-(Benzothiophen-3-yl)-5-chloro-1,2,3,4-tetrahydro-3α-hydroxy-2,2,4α,8-tetramethylquinoline] displayed an inhibitory constant (Ki) of 13 nM.

On to `COc1c(-c2cc(C)c3c(c2Cl)C(C)CC(C)(C)N3)cccc1[N+](=O)[O-]` (racemic) [Compound 156, (±)-5-Chloro-1,2,3,4-tetrahydro-6-(2-methoxy-3-nitrophenyl)-2,2,4,8-tetramethylquinoline], for which the affinity, expressed as Ki, was 2.9 nM. Next, `CC(C)=CCC1(C)C(=O)C(C)(C)Nc2c(C)cc(-c3c(C)noc3C)c(Cl)c21` (racemic) [Compound 185, (±)-5-Chloro-4-(3,3-dimethylallyl)-6-(3,5-dimethylisoxazol-4-yl)-1,4-dihydro-2,2,4,8-tetramethyl-2H-quinolin-3-one]: 2.5 nM; `Cc1cc(-c2ccsc2)c(Cl)c2c1NC(C)(C)C(O)C2C` (racemic) [Compound 160, (±)-5-Chloro-1,2,3,4-tetrahydro-3β-hydroxy-2,2,4α,8-tetramethyl-6-(thiophen-3-yl)quinoline]: 130 nM.
